Data set [1] deals with CHIKV Indian Ocean strain 899. Kind of data set: Anti-CHIKV CPE assay on Vero cells. The note with it: for EC50: Chikungunya virus, Vero; for SI: ratio of CC50 to EC50.
Data set [2] is described as follows: Cytotoxicity assay (metabolic activity of compound-treated cells). The note with it: African green monkey.
Data set [3] in a line: Lipophilicity by shake-flask method.
The test system of data set [4] is CHIKV. More on the design: method as in PMID 23275491. The note with it: CHIKV inhibition; cited from earlier work.
The test system of data set [5] is CHIKV isolate. The note with it: CHIKV isolate replication; cited from earlier work.
For data set [6] the following is noted: cited from earlier work.
The subject of data set [7] is CHIKV. As to conditions: cited from earlier work.

Where two headings read alike, the source gives them in different places.

Regarding `O=c1oc2cc(OS(=O)(=O)c3ccccc3)ccc2cc1CSc1nc(Nc2ccccc2)c2ccccc2n1` [Compound 2b, 2′-Oxo-3′-[([4-(phenylamino)quinazolin-2-yl]thio)methyl]-2H-chromen-7′-yl Benzenesulfonate], in data set [1], the response was half-maximal at 3.84 µM (EC50) and the SI came to 18.8. The “fold more potent than quinazolinone conjugate 10a” value in data set [1] (EC50 comparison 2b vs 10a) was 2.0 times. For the same compound, the “fold improvement of SI in comparison with 10a” value in data set [1] (SI comparison 2b vs 10a) was 3.68 times. The compound further showed a CC50 in data set [2] of 72.3 µM. The same compound returned a logP in data set [3] of 5.27.
In the case of `O=c1oc2cc(OS(=O)(=O)c3ccccc3)ccc2cc1CSc1nc2ccccc2c(=O)[nH]1` [Compound 10a, 2′-Oxo-3′-([(4-oxo-3,4-dihydroquinazolin-2-yl)thio]methyl)-2H-chromen-7′-yl Benzenesulfonate], in data set [1], a half-maximal response (EC50) required 7.84 µM and the SI is on record as 5.11. The compound further had a CC50 in data set [2] of 40.1 µM. Also, in data set [3], the logP was determined as 3.52.
`COc1ccc(S(=O)(=O)Oc2ccc3cc(CSc4nc5ccccc5c(=O)[nH]4)c(=O)oc3c2)cc1` [Compound 10b, 2′-Oxo-3′-([(4-oxo-3,4-dihydroquinazolin-2-yl)thio]methyl)-2H-chromen-7′-yl 4″-Methoxybenzenesulfonate]: the EC50 in data set [1] was > 186 µM. The logP in data set [3] was 3.45.
Consider `O=c1oc2cc(OS(=O)(=O)c3ccc(F)cc3)ccc2cc1CSc1nc2ccccc2c(=O)[nH]1` [Compound 10c, 2′-Oxo-3′-([(4-oxo-3,4-dihydroquinazolin-2-yl)thio]methyl)-2H-chromen-7′-yl 4″-Fluorobenzenesulfonate], for which, in data set [1], a half-maximal response (EC50) required 6.46 µM and the SI was determined as 9.24. Further, the “fold more potent against CHIKV than β-substituted isomer 11” value in data set [1] (EC50 comparison 10c vs 11) is on record as ~ 3 times. For the same compound, the “fold improvement of SI in comparison with β-11” value in data set [1] (SI comparison 10c vs 11) is 5.7 times. In addition, the CC50 in data set [2] was 59.7 µM. The compound further had a logP in data set [3] of 3.68.
Take `O=c1oc2cc(OS(=O)(=O)c3ccc(Br)cc3)ccc2cc1CSc1nc2ccccc2c(=O)[nH]1` [Compound 10d, 2′-Oxo-3′-([(4-oxo-3,4-dihydroquinazolin-2-yl)thio]methyl)-2H-chromen-7′-yl 4″-Bromobenzenesulfonate]: in data set [1], the midpoint of the response, the EC50, lay at 18.4 µM and the SI is 3.40. In addition, in data set [2], the CC50 is 62.6 µM. This compound also came in with a logP in data set [3] of 3.94.
For `O=c1oc2cc(OS(=O)(=O)c3ccccc3[N+](=O)[O-])ccc2cc1CSc1nc2ccccc2c(=O)[nH]1` [Compound 10e, 2′-Oxo-3′-([(4-oxo-3,4-dihydroquinazolin-2-yl)thio]methyl)-2H-chromen-7′-yl 2″-Nitrobenzenesulfonate] the same measures were 12.7 µM, 5.06, 64.3 µM and 3.48.
Turning to `O=c1oc2cc(OS(=O)(=O)c3ccc([N+](=O)[O-])cc3)ccc2cc1CSc1nc2ccccc2c(=O)[nH]1` [Compound 10f, 2′-Oxo-3′-([(4-oxo-3,4-dihydroquinazolin-2-yl)thio]methyl)-2H-chromen-7′-yl 4″-Nitrobenzenesulfonate], the EC50 in data set [1] was > 186 µM. In addition, the logP in data set [3] was 3.43.
`COC(=O)C[C@](O)(CCC(C)(C)O)C(=O)O[C@@H]1C(OC)=C[C@]23CCCN2CCc2cc4c(cc2[C@H]13)OCO4` [Harringtonine, harringtonine]: in data set [4], the EC50 is 240 nM.
Take `Cc1ccc(C(=O)Nc2ccc(S(=O)(=O)O)c3cc(S(=O)(=O)O)cc(S(=O)(=O)O)c23)cc1NC(=O)c1cccc(NC(=O)Nc2cccc(C(=O)Nc3cc(C(=O)Nc4ccc(S(=O)(=O)O)c5cc(S(=O)(=O)O)cc(S(=O)(=O)O)c45)ccc3C)c2)c1` [Suramin]: in data set [5], the EC50 was ~80 µM. Also, in data set [6], the CC50 was > 5 mM.
With `O=C(NN=Cc1ccccc1)C1CC1` [benzylidene(cyclopropane)carbohydrazide], the EC50 in data set [7] (CHIKV-induced CPE) was 5 µM. For the same compound, in data set [7], the SI is listed as 14.
